EC50 data for 8 compounds are collected here from ChEMBL document CHEMBL1128079, “Differential RXR & RAR activity of stilbene retinoid analogs bearing thiazole and imidazole carboxylic acids” (Bioorg Med Chem Lett, 1995).

What all share (type): functional
For test [1], the target named is T1, Retinoic acid receptor gamma (Homo sapiens, UniProt P13631).
T1 sequence (P13631 whole entry): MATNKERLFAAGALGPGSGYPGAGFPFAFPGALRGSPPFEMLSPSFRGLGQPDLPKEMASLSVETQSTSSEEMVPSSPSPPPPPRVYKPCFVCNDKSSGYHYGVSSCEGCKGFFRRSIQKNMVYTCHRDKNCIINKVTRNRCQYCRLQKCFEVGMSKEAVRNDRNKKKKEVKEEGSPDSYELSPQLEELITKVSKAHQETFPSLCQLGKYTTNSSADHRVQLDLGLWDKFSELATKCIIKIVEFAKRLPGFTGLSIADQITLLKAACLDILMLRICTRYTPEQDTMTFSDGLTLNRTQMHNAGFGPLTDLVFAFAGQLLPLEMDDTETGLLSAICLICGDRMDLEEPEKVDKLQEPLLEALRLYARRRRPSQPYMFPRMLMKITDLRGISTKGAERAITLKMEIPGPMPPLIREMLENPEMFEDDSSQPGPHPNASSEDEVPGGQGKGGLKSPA
Description: Agonist activity for retinoic acid receptor RAR gamma in transcriptional activation assay; […].

The target of test [2] is T2, Retinoic acid receptor RXR-gamma (Homo sapiens, UniProt P48443).
T2 sequence (P48443 whole entry): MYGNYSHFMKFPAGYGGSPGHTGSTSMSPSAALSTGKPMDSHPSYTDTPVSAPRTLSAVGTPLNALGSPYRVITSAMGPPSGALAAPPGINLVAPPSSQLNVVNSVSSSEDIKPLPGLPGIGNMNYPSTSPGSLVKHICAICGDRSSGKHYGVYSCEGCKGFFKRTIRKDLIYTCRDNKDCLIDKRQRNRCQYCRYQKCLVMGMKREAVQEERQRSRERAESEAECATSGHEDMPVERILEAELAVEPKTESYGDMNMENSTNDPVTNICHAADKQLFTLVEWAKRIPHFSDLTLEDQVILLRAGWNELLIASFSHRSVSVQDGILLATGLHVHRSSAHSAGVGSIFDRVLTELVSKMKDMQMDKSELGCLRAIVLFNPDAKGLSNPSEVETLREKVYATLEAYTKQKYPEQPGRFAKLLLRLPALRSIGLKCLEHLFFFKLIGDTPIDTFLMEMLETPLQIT
Description: Agonist activity for retinoic acid receptor RXR gamma in transcriptional activation assay.

Test [3] has as its target T3, Retinoic acid receptor RXR-alpha (Homo sapiens, UniProt P19793).
T3 sequence (P19793 whole entry): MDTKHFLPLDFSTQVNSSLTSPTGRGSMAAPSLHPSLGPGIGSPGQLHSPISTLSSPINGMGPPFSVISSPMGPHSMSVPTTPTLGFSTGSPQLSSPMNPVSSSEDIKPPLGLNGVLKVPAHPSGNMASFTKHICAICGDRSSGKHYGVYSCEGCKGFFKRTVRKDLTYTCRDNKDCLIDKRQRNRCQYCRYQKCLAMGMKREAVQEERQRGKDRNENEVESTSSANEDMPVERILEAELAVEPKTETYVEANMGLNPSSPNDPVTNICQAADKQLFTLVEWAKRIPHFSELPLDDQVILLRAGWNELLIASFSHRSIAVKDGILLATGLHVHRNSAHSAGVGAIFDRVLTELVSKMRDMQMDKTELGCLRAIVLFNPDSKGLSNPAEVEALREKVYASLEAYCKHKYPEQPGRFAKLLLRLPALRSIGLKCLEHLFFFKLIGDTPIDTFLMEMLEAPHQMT
Description: Agonist activity for retinoic acid receptor RXR alpha in transcriptional activation assay.

The target in test [4] is T4, Retinoic acid receptor beta (Homo sapiens, UniProt P10826).
T4 sequence (P10826 whole entry): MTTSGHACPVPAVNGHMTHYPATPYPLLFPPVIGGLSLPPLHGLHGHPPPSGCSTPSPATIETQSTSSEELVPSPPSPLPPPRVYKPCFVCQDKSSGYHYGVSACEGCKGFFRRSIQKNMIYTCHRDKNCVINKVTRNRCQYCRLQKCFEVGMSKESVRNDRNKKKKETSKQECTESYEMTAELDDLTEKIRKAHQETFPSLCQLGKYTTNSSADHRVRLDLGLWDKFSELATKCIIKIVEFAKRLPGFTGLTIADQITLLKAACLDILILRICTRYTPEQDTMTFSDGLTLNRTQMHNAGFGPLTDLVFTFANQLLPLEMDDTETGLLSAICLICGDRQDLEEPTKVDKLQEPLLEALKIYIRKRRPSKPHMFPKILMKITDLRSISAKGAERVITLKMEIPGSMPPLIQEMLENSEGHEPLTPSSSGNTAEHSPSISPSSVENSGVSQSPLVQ
Put plainly: Agonist activity for retinoic acid receptor RAR beta in transcriptional activation assay; […].

The target in test [5] is T5, Retinoic acid receptor alpha (Homo sapiens, UniProt P10276).
T5 sequence (P10276 whole entry): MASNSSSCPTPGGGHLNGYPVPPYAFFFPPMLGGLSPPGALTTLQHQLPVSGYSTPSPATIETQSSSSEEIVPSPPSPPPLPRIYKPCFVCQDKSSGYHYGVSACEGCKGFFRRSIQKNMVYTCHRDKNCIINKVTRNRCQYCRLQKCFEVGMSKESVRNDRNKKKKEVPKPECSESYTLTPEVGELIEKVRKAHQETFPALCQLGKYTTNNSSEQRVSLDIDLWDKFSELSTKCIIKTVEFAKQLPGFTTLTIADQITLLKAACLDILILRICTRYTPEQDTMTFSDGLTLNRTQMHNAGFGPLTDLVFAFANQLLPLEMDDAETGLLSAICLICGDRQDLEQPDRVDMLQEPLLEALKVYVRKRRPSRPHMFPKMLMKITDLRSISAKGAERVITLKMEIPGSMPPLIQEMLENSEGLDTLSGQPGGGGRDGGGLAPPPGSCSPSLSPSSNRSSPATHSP
Put plainly: Agonist activity for retinoic acid receptor RAR alpha in transcriptional activation assay; […].

Test [6] concerns the target T6, Retinoic acid receptor RXR-beta (Homo sapiens, UniProt P28702).
T6 sequence (P28702 whole entry): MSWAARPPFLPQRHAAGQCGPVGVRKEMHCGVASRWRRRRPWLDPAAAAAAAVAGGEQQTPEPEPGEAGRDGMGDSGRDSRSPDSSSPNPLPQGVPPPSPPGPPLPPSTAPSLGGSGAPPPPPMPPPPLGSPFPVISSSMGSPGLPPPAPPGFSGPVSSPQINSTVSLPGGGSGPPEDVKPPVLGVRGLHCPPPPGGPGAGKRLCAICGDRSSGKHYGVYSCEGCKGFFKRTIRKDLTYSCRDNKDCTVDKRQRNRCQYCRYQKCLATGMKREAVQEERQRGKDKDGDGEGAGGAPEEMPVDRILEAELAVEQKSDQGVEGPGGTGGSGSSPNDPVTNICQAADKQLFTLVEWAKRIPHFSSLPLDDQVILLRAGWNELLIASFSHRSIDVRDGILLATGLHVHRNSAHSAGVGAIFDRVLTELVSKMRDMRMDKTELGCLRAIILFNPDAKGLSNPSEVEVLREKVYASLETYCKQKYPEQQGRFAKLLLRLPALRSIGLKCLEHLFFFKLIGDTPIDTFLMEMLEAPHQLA
Put plainly: Agonist activity for retinoic acid receptor RXR beta in transcriptional activation assay.

Test [7] addresses T1, Retinoic acid receptor gamma. Put plainly: Agonist activity for retinoic acid receptor RAR gamma in transcriptional activation assay.
Test [8] has as its target T5, Retinoic acid receptor alpha. Description: Agonist activity for retinoic acid receptor RAR alpha in transcriptional activation assay.
Test [9] concerns the target T4, Retinoic acid receptor beta. Description: Agonist activity for retinoic acid receptor RAR beta in transcriptional activation assay.

On to `C/C(=C\c1ncc(C(=O)O)n1S(=O)(=O)N(C)C)c1cc2c(cc1C)C(C)(C)CCC2(C)C`, for which the EC50 result in test [1] was “Not Active”; in test [2] (read-out: EC50), 86 nM; in test [3], 59 nM; in test [4] it was “Not Active”; in [5] it was “Not Active”; in test [6], 180 nM.

Consider `C/C(=C\c1ccc(C(=O)O)s1)c1ccc2c(c1)C(C)(C)CCC2(C)C`, for which the EC50 was 2300 nM in test [2] (read-out: EC50); 15 nM in test [7]; 2400 nM in test [3]; 690 nM in test [8]; 29 nM in test [9]; 2300 nM in test [6].

On to `C/C(=C\c1ccc(C(=O)O)s1)c1cc2c(cc1C)C(C)(C)CCC2(C)C`, for which the EC50 in test [2] (read-out: EC50) was 33 nM; in test [7] it was 131 nM; in test [3] it was 35 nM; in test [9], 56 nM; in test [5], “Not Active”; in [6], 23 nM.

Consider `C/C(=C\c1nc(C(=O)O)c[nH]1)c1cc2c(cc1C)C(C)(C)CCC2(C)C`, for which the EC50 entry is “Not Active” in test [1]; 170 nM in test [2] (read-out: EC50); 89 nM in [3]; “Not Active” in [4]; “Not Active” in test [5]; 130 nM in [6].

As to `C/C(=C\c1ccc(C(=O)O)cc1)c1ccc2c(c1)C(C)(C)CCC2(C)C`, the EC50 result in [2] is “Not Active”.

For the compound `C/C(=C\c1cc(C(=O)O)cs1)c1cc2c(cc1C)C(C)(C)CCC2(C)C`, the EC50 in test [2] (read-out: EC50) was 105 nM; in test [7] it was 979 nM; in test [3] it was 215 nM; in test [9], 1990 nM; in [5], “Not Active”; in [6], 180 nM.

With `C/C(=C\c1ncc(C(=O)O)s1)c1ccc2c(c1)C(C)(C)CCC2(C)C`, the EC50 in test [2] (read-out: EC50) came to 160 nM; in test [7], 34 nM; in test [3] it was 210 nM; in test [8] it was 210 nM; in test [9], 46 nM; in test [6], 210 nM.

In the case of `C/C(=C\c1ncc(C(=O)O)s1)c1cc2c(cc1C)C(C)(C)CCC2(C)C`, the EC50 in test [2] (read-out: EC50) was 4 nM; in test [7], 200 nM; in test [3], 4 nM; in test [9], 220 nM; in test [5] it was “Not Active”; in [6] it was 3 nM.

The term EC50 denotes the concentration needed to bring the measured effect to its halfway point.
